What was measured:
Assay type in all cases: biochemical
[1] = target: T1, BTK-WT (Homo sapiens, UniProt Q06187); test: Btk in vitro inhibitory activity (one of Method A TR-FRET, Method B electrophoretic mobility shift, Method C radiometric filter binding); details: D-compounds panel data; read-out: IC50 BTK-WT
T1 construct: purified from insect cells as a full-length construct containing an N-terminal 6X-His tag; His6 (N); made in house; host or cells: insect cells (baculovirus Sf21 in Method B)

[2] = target: T2, JAK3 (Homo sapiens, UniProt P52333); test: Inhibition of a panel of kinases, in vitro HotSpot kinase assay: JAK3; details: D-compounds panel data; 1 μM ATP; read-out: IC50 JAK3
T2 sequence (P52333 1-1124): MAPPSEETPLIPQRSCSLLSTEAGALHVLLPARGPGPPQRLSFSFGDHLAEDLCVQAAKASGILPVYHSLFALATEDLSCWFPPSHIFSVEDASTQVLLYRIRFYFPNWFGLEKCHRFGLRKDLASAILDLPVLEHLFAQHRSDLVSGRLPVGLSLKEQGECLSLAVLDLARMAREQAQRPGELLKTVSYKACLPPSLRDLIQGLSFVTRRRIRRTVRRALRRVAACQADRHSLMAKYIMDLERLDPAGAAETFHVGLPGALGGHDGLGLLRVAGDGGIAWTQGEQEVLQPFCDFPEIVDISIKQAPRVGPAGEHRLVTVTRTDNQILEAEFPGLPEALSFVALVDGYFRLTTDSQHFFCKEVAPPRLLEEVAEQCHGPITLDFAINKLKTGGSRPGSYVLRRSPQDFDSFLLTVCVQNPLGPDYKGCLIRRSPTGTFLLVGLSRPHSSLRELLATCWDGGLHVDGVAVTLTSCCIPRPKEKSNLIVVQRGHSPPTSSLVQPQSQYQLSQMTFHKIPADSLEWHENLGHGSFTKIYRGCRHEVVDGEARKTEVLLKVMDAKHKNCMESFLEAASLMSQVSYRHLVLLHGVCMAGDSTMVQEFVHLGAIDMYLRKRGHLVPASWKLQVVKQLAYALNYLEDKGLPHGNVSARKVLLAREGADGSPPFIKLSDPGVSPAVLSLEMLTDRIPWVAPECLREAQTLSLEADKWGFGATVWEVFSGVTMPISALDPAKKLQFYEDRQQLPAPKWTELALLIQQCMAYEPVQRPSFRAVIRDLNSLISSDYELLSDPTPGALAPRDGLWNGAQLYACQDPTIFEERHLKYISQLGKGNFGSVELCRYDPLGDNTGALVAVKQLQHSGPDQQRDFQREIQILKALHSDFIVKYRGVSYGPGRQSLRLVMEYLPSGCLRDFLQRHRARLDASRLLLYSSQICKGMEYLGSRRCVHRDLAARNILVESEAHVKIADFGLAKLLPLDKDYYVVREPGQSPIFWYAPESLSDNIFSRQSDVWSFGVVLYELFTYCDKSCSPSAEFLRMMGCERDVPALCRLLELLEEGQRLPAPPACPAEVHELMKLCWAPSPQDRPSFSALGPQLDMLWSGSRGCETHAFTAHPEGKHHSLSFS

[3] = target: LCK (Homo sapiens, UniProt P06239); test: Inhibition of a panel of kinases, in vitro HotSpot kinase assay: LCK; details: D-compounds panel data; 1 μM ATP; read-out: IC50 LCK
[4] = target: EGFR (Homo sapiens, UniProt P00533); test: Inhibition of a panel of kinases, in vitro HotSpot kinase assay: EGFR; details: D-compounds panel data; 1 μM ATP
Procedure: (§1) The degree of inhibition of a panel of kinases is determined using the in vitro HotSpot kinase assay (purified enzymes, ^33P-ATP, an appropriate substrate and 1 μM ATP).

[5] = target: SRC (Homo sapiens, UniProt P12931); test: Inhibition of a panel of kinases, in vitro HotSpot kinase assay: SRC; details: D-compounds panel data; 1 μM ATP
Procedure: as §1

LCK, sequence (P06239 whole entry): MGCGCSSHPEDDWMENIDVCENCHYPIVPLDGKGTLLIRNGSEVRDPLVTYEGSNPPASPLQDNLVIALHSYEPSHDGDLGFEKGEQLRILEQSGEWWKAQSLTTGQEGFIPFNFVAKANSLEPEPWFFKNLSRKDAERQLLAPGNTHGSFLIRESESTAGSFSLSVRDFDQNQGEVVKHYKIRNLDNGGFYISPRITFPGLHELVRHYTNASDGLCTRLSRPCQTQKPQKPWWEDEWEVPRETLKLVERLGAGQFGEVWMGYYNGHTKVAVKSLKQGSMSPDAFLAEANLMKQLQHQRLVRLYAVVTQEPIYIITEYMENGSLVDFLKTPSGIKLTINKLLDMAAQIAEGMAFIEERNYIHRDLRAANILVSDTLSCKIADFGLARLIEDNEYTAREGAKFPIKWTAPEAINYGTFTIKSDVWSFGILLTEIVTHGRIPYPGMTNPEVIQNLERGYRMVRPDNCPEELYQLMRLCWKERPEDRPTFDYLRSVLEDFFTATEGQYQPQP
SRC, sequence (P12931 whole entry): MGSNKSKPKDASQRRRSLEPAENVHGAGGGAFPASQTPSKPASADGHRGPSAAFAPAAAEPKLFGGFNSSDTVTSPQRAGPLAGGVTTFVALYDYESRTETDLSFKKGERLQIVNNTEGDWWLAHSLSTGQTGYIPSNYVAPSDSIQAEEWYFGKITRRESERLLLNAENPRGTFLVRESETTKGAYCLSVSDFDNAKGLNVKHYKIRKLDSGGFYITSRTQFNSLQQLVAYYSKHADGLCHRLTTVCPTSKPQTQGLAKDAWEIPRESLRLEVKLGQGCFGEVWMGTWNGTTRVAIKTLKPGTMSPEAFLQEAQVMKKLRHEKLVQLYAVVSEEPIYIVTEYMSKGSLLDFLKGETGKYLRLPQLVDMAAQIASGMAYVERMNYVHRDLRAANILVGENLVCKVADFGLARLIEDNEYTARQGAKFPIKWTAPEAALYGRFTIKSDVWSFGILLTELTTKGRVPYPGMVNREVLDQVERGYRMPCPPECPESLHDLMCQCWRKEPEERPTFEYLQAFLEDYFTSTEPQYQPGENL
EGFR, sequence (P00533 25-1210): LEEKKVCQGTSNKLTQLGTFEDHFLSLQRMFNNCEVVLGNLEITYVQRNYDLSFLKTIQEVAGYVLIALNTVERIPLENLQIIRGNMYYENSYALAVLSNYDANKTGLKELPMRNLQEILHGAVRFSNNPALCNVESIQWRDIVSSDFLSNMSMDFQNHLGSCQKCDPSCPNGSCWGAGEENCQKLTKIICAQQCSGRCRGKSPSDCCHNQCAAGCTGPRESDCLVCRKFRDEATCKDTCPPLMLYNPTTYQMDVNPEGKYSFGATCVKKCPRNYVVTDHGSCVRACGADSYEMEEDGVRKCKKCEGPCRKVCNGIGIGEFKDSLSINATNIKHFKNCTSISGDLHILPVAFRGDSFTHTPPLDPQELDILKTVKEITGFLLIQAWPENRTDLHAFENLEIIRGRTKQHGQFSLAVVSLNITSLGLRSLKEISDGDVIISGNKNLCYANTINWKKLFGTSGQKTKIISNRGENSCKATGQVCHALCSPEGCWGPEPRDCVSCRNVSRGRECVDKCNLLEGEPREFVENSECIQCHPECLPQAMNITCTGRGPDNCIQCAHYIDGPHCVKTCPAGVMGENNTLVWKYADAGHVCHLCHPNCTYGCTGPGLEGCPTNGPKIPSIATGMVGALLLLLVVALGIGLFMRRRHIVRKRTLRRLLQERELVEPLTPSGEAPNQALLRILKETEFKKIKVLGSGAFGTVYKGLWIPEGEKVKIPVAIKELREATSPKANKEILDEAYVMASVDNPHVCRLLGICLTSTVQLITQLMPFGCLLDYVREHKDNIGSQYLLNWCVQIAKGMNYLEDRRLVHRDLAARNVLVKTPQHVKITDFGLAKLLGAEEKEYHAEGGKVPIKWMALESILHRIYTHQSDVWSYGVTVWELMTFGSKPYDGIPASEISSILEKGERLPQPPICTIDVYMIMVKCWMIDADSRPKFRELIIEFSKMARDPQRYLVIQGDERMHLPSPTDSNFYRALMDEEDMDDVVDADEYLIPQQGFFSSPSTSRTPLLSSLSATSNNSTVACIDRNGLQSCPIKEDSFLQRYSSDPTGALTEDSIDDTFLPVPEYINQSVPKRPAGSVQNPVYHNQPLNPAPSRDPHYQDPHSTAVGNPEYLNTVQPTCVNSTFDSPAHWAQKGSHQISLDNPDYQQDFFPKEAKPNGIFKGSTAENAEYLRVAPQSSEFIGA
T1 sequence (Q06187 whole entry): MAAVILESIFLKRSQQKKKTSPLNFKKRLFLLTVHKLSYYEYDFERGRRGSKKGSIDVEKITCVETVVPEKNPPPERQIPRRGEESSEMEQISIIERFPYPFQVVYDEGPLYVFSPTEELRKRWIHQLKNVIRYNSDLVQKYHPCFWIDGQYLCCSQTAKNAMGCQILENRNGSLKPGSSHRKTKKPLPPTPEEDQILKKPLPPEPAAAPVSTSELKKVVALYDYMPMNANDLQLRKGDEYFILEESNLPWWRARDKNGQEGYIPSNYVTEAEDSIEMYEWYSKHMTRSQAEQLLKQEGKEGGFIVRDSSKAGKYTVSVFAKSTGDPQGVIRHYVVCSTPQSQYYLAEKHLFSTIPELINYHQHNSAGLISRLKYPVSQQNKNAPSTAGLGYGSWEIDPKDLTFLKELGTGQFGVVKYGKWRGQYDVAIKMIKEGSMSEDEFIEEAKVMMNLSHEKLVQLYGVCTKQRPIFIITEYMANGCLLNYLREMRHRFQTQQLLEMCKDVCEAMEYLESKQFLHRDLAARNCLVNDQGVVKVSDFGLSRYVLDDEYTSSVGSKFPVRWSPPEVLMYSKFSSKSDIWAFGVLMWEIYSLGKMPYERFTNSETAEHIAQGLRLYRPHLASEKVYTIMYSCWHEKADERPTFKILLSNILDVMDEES

SMILES	IC50 [1]	IC50 [2]	IC50 [3]	IC50 [4]	IC50 [5]
CC(C)N1CCN(c2ccc(Nc3nc(N4CCC[C@@H](NC(=O)c5ccc(C6CC6)cc5F)[C@H]4C)cnc3C(N)=O)cc2)CC1 [Example D-7, 5-[(2R,3R)-3-(4-cyclopropyl-2-fluorobenzamido)-2-methylpiperidin-1-yl]-3-({4-[4-(propan-2-yl)piperazin-1-yl]phenyl}amino)pyrazine-2-carboxamide]	≤ 10 nM	1000 to 10000 nM	10 to 100 nM	100 to 1000 nM	10 to 100 nM
C[C@@H]1CC[C@H](NC(=O)c2ccc(C3CC3)cc2)CN1c1cnc(C(N)=O)c(Nc2ccc(N3CCN(C)CC3)cc2)n1 [Example D-153, 5-[(2R,5S)-5-(4-cyclopropylbenzamido)-2-methylpiperidin-1-yl]-3-{[4-(4-methylpiperazin-1-yl)phenyl]amino}pyrazine-2-carboxamide]	≤ 10 nM	100 to 1000 nM	10 to 100 nM	100 to 1000 nM	10 to 100 nM
C[C@@H]1[C@H](NC(=O)c2ccc(C3CC3)cc2F)CCCN1c1cnc(C(N)=O)c(Nc2ccc(N3CCN(C4CCCC4)CC3)cc2)n1 [Example D-5, 3-{[4-(4-cyclopentylpiperazin-1-yl)phenyl]amino}-5-[(2R,3R)-3-(4-cyclopropyl-2-fluorobenzamido)-2-methylpiperidin-1-yl]pyrazine-2-carboxamide]	≤ 10 nM	100 to 1000 nM	100 to 1000 nM	100 to 1000 nM	10 to 100 nM
C[C@H]1CC[C@H](NC(=O)c2ccc(C3CC3)cc2)CN1c1cnc(C(N)=O)c(Nc2cnn(C)c2)n1 [Example D-144, 5-[(2S,5S)-5-(4-cyclopropylbenzamido)-2-methylpiperidin-1-yl]-3-[(1-methyl-1H-pyrazol-4-yl)amino]pyrazine-2-carboxamide]	100 to 1000 nM	> 10000 nM	1000 to 10000 nM	> 10000 nM	1000 to 10000 nM
C[C@@H]1[C@H](NC(=O)c2ccc(C3CC3)cc2F)CCCN1c1cnc(C(N)=O)c(Nc2ccc3ncccc3c2)n1 [Example D-114, 5-[(2R,3R)-3-(4-cyclopropyl-2-fluorobenzamido)-2-methylpiperidin-1-yl]-3-[(quinolin-6-yl)amino]pyrazine-2-carboxamide]	10 to 100 nM	> 10000 nM	> 10000 nM	> 10000 nM	100 to 1000 nM
C[C@@H]1[C@H](NC(=O)c2ccc(C3CC3)cc2)CCCN1c1cnc(C(N)=O)c(Nc2ccc(OC3CCCN(C)C3)cc2)n1 (stereo partly drawn) [Example D-105, 5-[(2R,3R)-3-(4-cyclopropylbenzamido)-2-methylpiperidin-1-yl]-3-({4-[(1-methylpiperidin-3-yl)oxy]phenyl}amino)pyrazine-2-carboxamide]	≤ 10 nM	100 to 1000 nM	10 to 100 nM	100 to 1000 nM	10 to 100 nM
Cc1cccc(-c2cnc(C3CCCN(c4cnc(C(N)=O)c(Nc5cnn(C)c5)n4)C3)[nH]2)c1 [Example D-148, 3-[(1-methyl-1H-pyrazol-4-yl)amino]-5-{3-[5-(3-methylphenyl)-1H-imidazol-2-yl]piperidin-1-yl}pyrazine-2-carboxamide]	10 to 100 nM	1000 to 10000 nM	100 to 1000 nM	1000 to 10000 nM	100 to 1000 nM
C[C@@H]1[C@H](NC(=O)c2ccc(OC(F)(F)F)cc2)CCCN1c1cnc(C(N)=O)c(Nc2cnn(C)c2)n1 [Example D-95, 3-[(1-methyl-1H-pyrazol-4-yl)amino]-5-[(2R,3R)-2-methyl-3-[4-(trifluoromethoxy)benzamido]piperidin-1-yl]pyrazine-2-carboxamide]	≤ 10 nM	1000 to 10000 nM	100 to 1000 nM	100 to 1000 nM	100 to 1000 nM
C[C@@H]1[C@H](NC(=O)c2ccc(C3CC3)cc2F)CCCN1c1cnc(C(N)=O)c(Nc2ccc3cccnc3c2)n1 [Example D-124, 5-[(2R,3R)-3-(4-cyclopropyl-2-fluorobenzamido)-2-methylpiperidin-1-yl]-3-[(quinolin-7-yl)amino]pyrazine-2-carboxamide]	10 to 100 nM	> 10000 nM	> 10000 nM	> 10000 nM	> 10000 nM
C[C@@H]1[C@H](NC(=O)c2ccc(C(C)(C)N(C)C)cc2)CCCN1c1cnc(C(N)=O)c(Nc2cnn(C)c2)n1 [Example D-108, 5-[(2R,3R)-3-{4-[2-(dimethylamino)propan-2-yl]benzamido}-2-methylpiperidin-1-yl]-3-[(1-methyl-1H-pyrazol-4-yl)amino]pyrazine-2-carboxamide]	≤ 10 nM	> 10000 nM	100 to 1000 nM	1000 to 10000 nM	10 to 100 nM
CN1CCN(Cc2ccc(Nc3nc(N4CCC[C@@H](n5ccc6cc(C7CC7)ccc6c5=O)C4)cnc3C(N)=O)cc2)CC1 [Example D-167, 5-[(3R)-3-(6-cyclopropyl-1-oxo-1,2-dihydroisoquinolin-2-yl)piperidin-1-yl]-3-({4-[(4-methylpiperazin-1-yl)methyl]phenyl}amino)pyrazine-2-carboxamide]	≤ 10 nM	100 to 1000 nM	100 to 1000 nM	1000 to 10000 nM	100 to 1000 nM
C[C@H]1CC[C@@H](NC(=O)c2ccc(C3CC3)cc2)CN1c1cnc(C(N)=O)c(Nc2cnn(C)c2)n1 [Example D-142, 5-[(2S,5R)-5-(4-cyclopropylbenzamido)-2-methylpiperidin-1-yl]-3-[(1-methyl-1H-pyrazol-4-yl)amino]pyrazine-2-carboxamide]	≤ 10 nM	100 to 1000 nM	10 to 100 nM	1000 to 10000 nM	10 to 100 nM
C[C@@H]1CC[C@H](NC(=O)N(C)C)CN1c1cnc(C(N)=O)c(Nc2cnn(C)c2)n1 [Example D-151, 5-[(2R,5S)-5-[(dimethylcarbamoyl)amino]-2-methylpiperidin-1-yl]-3-[(1-methyl-1H-pyrazol-4-yl)amino]pyrazine-2-carboxamide]	10 to 100 nM	> 10000 nM	10 to 100 nM	1000 to 10000 nM	100 to 1000 nM
C[C@@H]1[C@H](NC(=O)c2ccc(C3CC3)cc2)CCCN1c1cnc(C(N)=O)c(Nc2ccc(N3CCN(C)CC3)cc2F)n1 [Example D-103, 5-[(2R,3R)-3-(4-cyclopropylbenzamido)-2-methylpiperidin-1-yl]-3-{[2-fluoro-4-(4-methylpiperazin-1-yl)phenyl]amino}pyrazine-2-carboxamide]	≤ 10 nM	> 10000 nM	100 to 1000 nM	100 to 1000 nM	1000 to 10000 nM
C[C@@H]1[C@H](NC(=O)c2ccc(C3CC3)cc2F)CCCN1c1cnc(C(N)=O)c(Nc2ccn(C)n2)n1 [Example D-129, 5-[(2R,3R)-3-(4-cyclopropyl-2-fluorobenzamido)-2-methylpiperidin-1-yl]-3-[(1-methyl-1H-pyrazol-3-yl)amino]pyrazine-2-carboxamide]	100 to 1000 nM	> 10000 nM	> 10000 nM	1000 to 10000 nM	> 10000 nM
C[C@@H]1[C@H](NC(=O)c2ccc(C3CC3)cc2F)CCCN1c1cnc(C(N)=O)c(Nc2cc(CN(C)C)ns2)n1 [Example D-122, 5-[(2R,3R)-3-(4-cyclopropyl-2-fluorobenzamido)-2-methylpiperidin-1-yl]-3-({3-[(dimethylamino)methyl]-1,2-thiazol-5-yl}amino)pyrazine-2-carboxamide]	≤ 10 nM	1000 to 10000 nM	10 to 100 nM	1000 to 10000 nM	10 to 100 nM
C[C@@H]1[C@H](NC(=O)N(C)C)CCCN1c1cnc(C(N)=O)c(Nc2ccc(CN3CCN(C)CC3)cc2)c1 [Example D-120, 5-[(2R,3R)-3-[(dimethylcarbamoyl)amino]-2-methylpiperidin-1-yl]-3-({4-[(4-methylpiperazin-1-yl)methyl]phenyl}amino)pyridine-2-carboxamide]	100 to 1000 nM	1000 to 10000 nM	1000 to 10000 nM	> 10000 nM	1000 to 10000 nM
